According to paper PMC9820592, “Novel Chiral Ru(II) Complexes as Potential c-myc G-quadruplex DNA Stabilizers Inducing DNA Damage to Suppress Triple-Negative Breast Cancer Progression” (International Journal of Molecular Sciences, 2022):

Assays:
MCF-7 cells = assay: MTT assay, MCF-7 cells; type: cell-based, human; details: 72 h, read-out: Inhibitory Effect (IC50/μM) MCF-7
Protocol: (§1) Liver cancer HepG2 cells, lung cancer A549 cells, breast cancer MCF-7 and MDA-MB-231 cells, human nasopharyngeal carcinoma CNE-1 cells, and human immortalized keratinocyte HaCaT cells were seeded in 96-well plates (5 × 10^3 cells per well) and cultured at 37 °C and 5% CO2 for 24 h. Cells were treated with different concentrations of the complexes (0, 1.5625, 3.125, 6.25, 12.5, 25, 50, and 100 µM) for 72 h. After adding 20 µL MTT (5 mg/mL) solution to each well, the cells were incubated for 4 h, and then 150 µL DMSO was added to each well. The optical density of each well was detected by a microplate reader at a wavelength of 570 nm. The cell survival rate (%) = A(experimental group)/A(control group) × 100%, and the IC50 value was analyzed and calculated based on the survival rate.

CNE-1 cells = assay: MTT assay, CNE-1 cells; type: cell-based, human; details: 72 h, read-out: Inhibitory Effect (IC50/μM) CNE-1
Protocol: as §1

c-myc G-quadruplex DNA [1] = assay: FRET melting assay; type: binding, human; details: free DNA Tm 59.5 °C
Protocol: Carboxy fluorescein (FAM) and 6-carboxytetramethyl rhodamine (TAMRA) double fluorescent-labeled c-myc G4 DNA (5′−FAM-TGAGGGTGGGAGGGGTAA-TAMRA−3′) were heated to 95 °C in Tris-HCl-KCl buffer (containing 10 mM Tris-HCl, 100 mM KCl, pH 7.4) for 5 min and slowly cooled to room temperature. To ds26, double-stranded DNA ([…]) is a competitive binder, research Λ/Δ−3 with c-myc G4 selectivity binding ability of DNA. A Bio-Radiq5 real-time PCR detection system was used to measure the fluorescence melting curve. Approximately 1 μM (5 μL) FPU22T was mixed with a series of 5 μL compound solutions of different concentrations, and 15 μLTris-HCl-KCl buffer was added to the PCR 8 tube to obtain a total volume of 25 μL. A real-time fluorescence quantitative PCR instrument was used, and incubation was performed at 30 °C for 30 min. The program temperature range was set to 30–95 °C at a temperature interval of 1 °C, and recording was performed after balancing for 30 s to detect the fluorescence value of FAM. The conditions of the reaction system were similar to those of the FRET melting point test except that different concentrations of ds26 were added.

c-myc G-quadruplex DNA [2] = assay: PCR-stop assay; type: biochemical, human; details: Taq polymerase
Protocol: In this study, c-myc G4 DNA and its reverse complementary sequence c-myc rev were heated to 95 °C for 5 min, allowed to cool to room temperature, and incubated at 4 °C overnight. The system was supplemented with dNTPs and Taq polymerase for PCR amplification; heated at 95 °C for 3 min, 94 °C for 30 s, and 58 °C for 30 s, with an extension at 72 °C for 30 s (30 cycles); and analyzed by 15% nondenatured polyacrylamide gel electrophoresis and silver staining.

MDA-MB-231 cells [3] = assay: FITC-gelatine invasion assay; type: cell-based, human; details: 24 h
Protocol: An appropriate amount of FITC–gelatine glue was pipetted to cover the inner ring of the confocal cuvette, added to 0.5% glutaraldehyde for at least 30 min after solidification, and activated with 5 mg·mL^−1 sodium borohydride. Subsequently, 2 mL of cell suspension (5 × 10^4 cells) treated with different drug concentrations (0, 2.5, 5, and 10 µM) was added to each dish. The mixture was incubated at 37 °C for 24 h, and then the cells in each dish were fixed with 4% paraformaldehyde, incubated with phalloidin staining solution for 30 min and DAPI for 5 min, and imaged with a fluorescence microscope in the dark.

MDA-MB-231 cells [4] = assay: Immunofluorescence of paxillin and F-actin; type: cell-based, human; details: 24 h
Protocol: MDA-MB-231 cells were inoculated in a 6-well plate containing a cover glass. On the second day, the cells were treated with different concentrations of the complex (0, 5, and 10 μM) for 24 h. The cells were fixed with 4% paraformaldehyde for 20 min, and then blocked with 5% BSA for 0.5 h at room temperature. The 1:500 anti-γH2AX antibody was diluted with 5% FBS and incubated for 1 h. The cells were incubated with lgG (H + L) for 0.5 h and treated with DAPI for 5 min. The cover glass was then transferred to a specified microscope slide and photographed with laser confocal microscopy. The antibodies used in immunofluorescence to determine invasion and metastasis were anti-paxillin antibody (ab32115), Fluor 488-conjugated IgG (H + L) (Proteintech), and rhodamine phalloidin (Amanita phalloidin, cytoskeleton).

MDA-MB-231 cells [5] = assay: Flow cytometry, cell cycle distribution; type: cell-based, human; details: 72 h; for G0/G1: control 63.16%
Protocol: MDA-MB-231 cells were treated with different concentrations of the complexes (0, 10, 20, and 40 μM) for 72 h, then collected and stained with an Annexin V-FITC/PI Apoptosis Detection Kit I (BD, 556547). The MDA-MB-231 cells were fixed with 70% ethanol at 4 °C for 30 min, and then collected and stained with PI/RNase Staining Buffer (BD, 550825). The cells were analyzed by flow cytometry (Beckman, CytoFLEX). All experiments were repeated three times.

HUVECs = assay: Tube formation assay; type: cell-based, human; details: 10 μM, 6 h, VEGF 200 ng/mL
Protocol: Dissolving matrigel (4 °C, 24 h) was used to coat prechilled 96-well plates (50 μL/well, 37 °C, for at least 60 min). Then, the unsolid fluid was removed, and HUVECs at the density of 3 × 10^4 were cultured in DMEM with VEGF (200 ng/mL) containing the different concentrations of Δ−3 (0, 5, and 10 μM) for 6 h.

Substance: Δ-[Ru(bpy)2(3-NBEDPPZ)](ClO4)2 [Δ−3]
- IC50 (MCF-7 cells): 90.6 ± 6.34 µM
- IC50 (CNE-1 cells): 40.9 ± 0.53 µM
- ΔTm (c-myc G-quadruplex DNA [1]; complex 0.5 μM): approximately 3.5 °C
- ΔTm (c-myc G-quadruplex DNA [1]; complex 1.0 μM): ~7.2 °C
- minimum concentration necessary for effective inhibition (PCR products) (c-myc G-quadruplex DNA [2]): 2.5 µM
- degraded areas (black holes) on FITC-gelatine (MDA-MB-231 cells [3]; 10 μM): did not result in a black hole
- number of degraded areas on FITC-gelatine (MDA-MB-231 cells [3]; 2.5 and 5 μM, control six degraded areas): markedly reduced
- focal adhesions (paxillin) and stress fibers (F-actin) (MDA-MB-231 cells [4]): the amount of paxillin decreased
- G2/M (MDA-MB-231 cells [5]; 10 μM): 4.07%
- S (MDA-MB-231 cells [5]; 10 μM): 30.96%
- SubG1 (MDA-MB-231 cells [5]; 10 μM): 5.40%
- G0/G1 (MDA-MB-231 cells [5]; 10 μM): 64.97%
- G2/M (MDA-MB-231 cells [5]; 20 μM): 3.13%
- S (MDA-MB-231 cells [5]; 20 μM): 27.26%
- SubG1 (MDA-MB-231 cells [5]; 20 μM): 4.45%
- G0/G1 (MDA-MB-231 cells [5]; 20 μM): 69.61%
- G2/M (MDA-MB-231 cells [5]; 40 μM): 2.93%
- S (MDA-MB-231 cells [5]; 40 μM): 29.70%
- SubG1 (MDA-MB-231 cells [5]; 40 μM): 14.97%
- G0/G1 (MDA-MB-231 cells [5]; 40 μM): 67.37%
- tubular structures of HUVECs on Matrigel (HUVECs): sparse and incomplete
